Results on one compound are retold here after patent US3962443A, “Antibacterial pharmaceutical compositions and processes for preparation thereof” (Dainippon Pharmaceutical Co., Ltd., priority 1972, dated 1976).

Assay [1] deals with Escherichia coli K-12. Nature of the assay: In vitro antibacterial activity, MIC by serial dilution. Format: cell-based. The following applies: K12; Escherichia coli K-12; nutrient broth pH 7.0, 37°C, 48 hours; read-out: MIC. Here is the method: (§1) The minimum inhibitory concentration (MIC) was determined by the well
(§2) known serial dilution method.
(§3) Experimental conditions:?
(§4) Medium: nutrient broth, pH 7.0 (5 ml/tube)
(§5) Inoculum: 1 drop of 1 : 10^5 dilution of an overnight broth culture
(§6) Incubation temperature and time: 37°C for 48 hours

Assay [2] relates to Pseudomonas aeruginosa Tsuchijima. Described as above. Format: cell-based. The following applies: nutrient broth pH 7.0, 37°C, 48 hours. Here is the method: as §1, §2, §3, §4, §5, §6
Assay [3] deals with Staphylococcus aureus Terajima. The assay is described as above. Type of assay: cell-based. The following applies: nutrient broth pH 7.0, 37°C, 48 hours. Here is the method:
as §1, §2, §3, §4, §5, §6

Assay [4] has as its system Pseudomonas aeruginosa No. 12. The experiment in a line: In vivo efficacy against systemic infection with Pseudomonas aeruginosa in mice. Also noted: species or system mice (ddY-S). The following applies: NO.12, 168 h, 7 days; for ED50: twice, about 5 minutes and 6 hours after infection. As to the method: (§7) In the Tables II to IV, the ED50 and ID50 values were calculated in accordance with the Behrens-Kaerber method [Arch. Exp. Path. Pharm., 162, 480 (1931)]. The compound numbers are those described in the Examples and compounds PA and AT-616 are as follows:
(§8) total number. 0/8 means that all of 8 mice died. 8/8 means that all 8 mic
(§9) Mice: male mice (ddY-S) weighing 20 g approximately

Assay [5] deals with Salmonella typhimurium S-9. Nature of the assay: In vivo efficacy against systemic infection with Salmonella typhimurium in mice. More on the design: species or system mice (ddY-S). The following applies: for ED50: Salmonella enterica, TYPHIMURIUM, 336 h, twice a day for 4 days, 14 days observation; for number of the survived/the total number: 14 days. Here is the method:
as §7
The numerical figures in the table show the number of the survived/the
as §8
Experimental conditions.
Organism: Salmonella typhimurium S-9
as §9
Infection: Intraperitoneal infection with 50 to 100 LD50 of a
bacterial suspension in nutrient broth (about 10^5 cells/mouse)
Medication: twice a day for 4 days from the day of infection.
Drug: an alkaline solution for parenteral administration and suspension i
0.2% CMC for oral administration
i.e.: intraperitoneal administration
p.o.: oral administration

For assay [6], the system named is Mycobacterium tuberculosis H37 Rv. Nature of the assay: Antituberculous activity in vitro, MIC by serial dilution. Type of assay: cell-based. The following applies: H37RV, 504 h, Kirchner medium with 0.2% bovine albumin, pH 7.0, 37°C, 3 weeks. As to the method: (§10) The minimum inhibitory concentration (MIC:μg/ml) was determined by the
(§11) well known serial dilution method.
as §3
(§12) Medium: Kirchner medium containing 0.2% bovine albumin, pH 7.0 (3 ml/tube
(§13) Inoculum: 1 drop of 1:10^2 dilution of a culture in Modified Kirchner
(§14) medium for 2 weeks (OD=0.3) per tube
(§15) Incubation temp. and time: 37°C for 3 weeks

The test system of assay [7] is Mycobacterium tuberculosis Kurono. The description is as above. Conditions: 504 h, Kirchner medium with 0.2% bovine albumin, pH 7.0, 37°C, 3 weeks. Type of assay: cell-based. As to the method: as §10, §11, §3, §12, §13, §14, §15

≈ marks a conversion by molar mass, not a printed value.

On to `CCn1cc(C(=O)O)c(=O)c2cnc(N3CCCC3)nc21` [Compound PA, reference compound], for which the MIC is 1 µg/mL (≈ 3.47 µM) in assay [1]; 100 µg/mL (≈ 347 µM) in assay [2]; 10 µg/mL (≈ 34.7 µM) in assay [3]; 100 µg/mL (≈ 347 µM) in assay [6]; 100 µg/mL (≈ 347 µM) in assay [7]. Also, in assay [4] (ip, 100 mg/kg, read-out: number of the survival/the total number (converted)), the responders at 100 mg/kg is 0%. For the same compound, the ED50 in assay [4] (ip) was more than 100 mg/kg; in assay [4] (po), more than 200 mg/kg; in assay [5] (ip), 43.5 mg/kg; in assay [5] (po), 46.7 mg/kg. Moreover, in assay [4] (po, 200 mg/kg, read-out: number of the survival/the total number (converted)), the responders at 200 mg/kg was 0%. The “number of the survived/the total number” value is 0/10 in assay [5] (ip, 12.5 mg/kg); 3/10 in assay [5] (ip, 25 mg/kg); 5/10 in assay [5] (ip, 50 mg/kg); 9/10 in assay [5] (ip, 100 mg/kg); 0/10 in assay [5] (po, 12.5 mg/kg); 3/10 in assay [5] (po, 25 mg/kg). Besides, the “number of the survived/the total number” value is 4/10 in assay [5] (po, 50 mg/kg) and 10/10 in assay [5] (po, 100 mg/kg).
